Experiment [1] relates to VEGF. The experiment can be described thus: Evaluation of VEGF protein secretion level (Human VEGF ELISA) in ARPE-19 cell medium under hypoxic conditions. The experiment is classed as cell-based. The protocol: (§1) ARPE-19 cells (Human retinal pigment epithelial cells, ATCC CRL-2302) were cultured in DMEM/F12 (LM002-08, Welgene) medium containing 10% fetal bovine serum (FBS, 16000-044, Gibco) in an incubator at 37°C with 5% carbon dioxide. When the cells grew sufficiently, they were cultured in experimental culture dishes for protein isolation and medium supernatant acquisition.
(§2) Cells were detached from the culture dish using TrypLE™ Express (Gibco). After centrifugation at 1000 rpm for 3 minutes, the supernatant was removed. The cells were counted and seeded into new culture dishes. Normoxic conditions were maintained by culturing the cells in a 37°C incubator with 5% carbon dioxide, and hypoxic conditions were maintained by culturing the cells in a hypoxic incubator with 1% oxygen, 5% carbon dioxide, and 94% nitrogen gas.
The expression of the downstream gene, angiogenesis inducer VEGF, is regulated by HIF-1α, a major transcription factor under hypoxic conditions, and the level of secreted VEGF protein can be quantitatively confirmed through ELISA (Enzyme Linked Immunosorbent Assay, Human VEGF Quantikine ELISA Kit, R&D systems). For this purpose, the following experiment was conducted.
The compounds of each Example were diluted to 0.1 nM, 1 nM, 3 nM, 10 nM, 30 nM, 100 nM, 300 nM, 1 µM and 10 µM in DMEM/F12 medium containing 1% fetal bovine serum, pretreated for 2 hours, and cultured for 24 hours under hypoxic conditions to obtain the cell medium supernatant. The supernatant was centrifuged at 1000 rpm for 3 minutes, and a specific amount was treated with a VEGF ELISA assay kit and the absorbance value was measured at 450 nm to quantitatively confirm the level of VEGF protein (see Table 1 below).
Based on the results of secreted VEGF protein expression levels in cell media treated with compounds diluted at concentrations ranging from 10 µM to 0.1 nM, the concentration range of the compound at which the secreted VEGF protein level was reduced by 50% or less compared to the untreated control group was derived.
On the technique in general: An ELISA detects its analyte on a solid surface through an enzyme-linked reagent.

In experiment [2] the target is T1, HIF-1α (Homo sapiens, UniProt Q16665).
T1 construct: endogenous in cells; host or cells: ARPE-19 (ATCC CRL-2302)
Put plainly: Analysis of HIF-1α protein expression (Western blot) in ARPE-19 cells under mixed hypoxic condition. The experiment is classed as cell-based. Conditions: concentration range at which HIF-1α expression is reduced by 50% vs untreated control. The protocol: as §1, §2
In a disease of macular degeneration, hypoxia is a very important condition, and since the expression of downstream genes is regulated by HIF-1α, a transcription factor that is stabilized in hypoxic conditions, the following experiment was conducted to confirm this.
Mixed hypoxic condition was used for HIF-1α stability experiments, in which hypoxia was induced with 1% oxygen and the stability of HIF-1α was enhanced by treatment with cobalt chloride (CoCl2).
The compounds of each Example were diluted to 0.1 nM, 1 nM, 3 nM, 10 nM, 30 nM, 100 nM, 300 nM, 1 µM, and 10 µM in DMEM/F12 medium without fetal bovine serum, pretreated for 16 hours or 2 hours, and cultured for 1 hour or 24 hours in a mixed hypoxic condition. The cell medium was discarded, and protein lysates were obtained by rapidly treating with protein lysis buffer (RIPA Lysis and Extraction buffer, Thermo Fisher Scientific). LDS (4X Bolt ™ LDS Sample buffer) and reducing agent (10X Bolt ™ Sample Reducing Agent) were added together to the protein lysate, and heated at 70°C for 10 minutes. The lysate was separated by electrophoresis on a 4-12% Bis-Tris gel, transferred to a PVDF membrane, and blocked with 3% BSA (Albumin, Bovine, Fraction V, MPbio). The membrane was incubated overnight at 4°C with a mixture of anti-HIF-1α (ab179483, abcam) and anti-b-actin (MA515739, Invitrogen) antibodies at a ratio of 1:4000. The following day, the membrane was treated with a peroxidase-conjugated secondary antibody for 1 hour at room temperature, and the target protein was expressed using an ECL solution (Clarity ™ Western ECL substrate, Bio-rad) and quantified.
Based on the results of the expression level of HIF-1α in cells treated with compounds diluted from 10 µM to 0.1 nM, the concentration range of the compound at which the expression level of HIF-1α was reduced by 50% or less compared to the untreated control group was derived.
(Immunoblotting shows a protein as a band on a membrane.)

[3] abbreviates: ARPE-19 cells, pretreated 2 hours, 24 hours hypoxic conditions, secreted VEGF in medium supernatant by ELISA, concentration range reducing VEGF by 50% vs untreated control, read-out: IC50 VEGF.
Setting [4] is: values marked * in the table, mixed hypoxic condition (1% oxygen + CoCl2) for 24 hours, read-out: IC50 HIF-1α, Hypoxia(24h).
Setting [5] is: mixed hypoxic condition (1% oxygen + CoCl2) for 1 hour, read-out: IC50 HIF-1α Hypoxia (1 hour).
The mark [6] stands for this setting: ARPE-19 cells, pretreated 2 hours, 24 hours hypoxic conditions, ELISA, read-out: concentration at which the secreted VEGF protein level was suppressed to less than 50%.
Setting [7] is: Experimental Example 2 (HIF-1α Western blot), read-out: concentration at which the expression level of VEGF was suppressed to less than 50%.

Our source for the IC50 and DC50 values is EP4567035A1, “NOVEL COMPOUND AS HYPOXIA-INDUCIBLE FACTOR 1(HIF-1) INHIBITOR OR VASCULAR ENDOTHELIAL GROWTH FACTOR (VEGF) INHIBITOR, AND PHARMACEUTICAL COMPOSITION COMPRISING SAME” (Nextgen Bioscience Co., Ltd., priority 2022, dated 2024).

pIC50: −log10 of the molar value. Where two headings read alike, the source gives them in different places.

T1 sequence (Q16665 whole entry): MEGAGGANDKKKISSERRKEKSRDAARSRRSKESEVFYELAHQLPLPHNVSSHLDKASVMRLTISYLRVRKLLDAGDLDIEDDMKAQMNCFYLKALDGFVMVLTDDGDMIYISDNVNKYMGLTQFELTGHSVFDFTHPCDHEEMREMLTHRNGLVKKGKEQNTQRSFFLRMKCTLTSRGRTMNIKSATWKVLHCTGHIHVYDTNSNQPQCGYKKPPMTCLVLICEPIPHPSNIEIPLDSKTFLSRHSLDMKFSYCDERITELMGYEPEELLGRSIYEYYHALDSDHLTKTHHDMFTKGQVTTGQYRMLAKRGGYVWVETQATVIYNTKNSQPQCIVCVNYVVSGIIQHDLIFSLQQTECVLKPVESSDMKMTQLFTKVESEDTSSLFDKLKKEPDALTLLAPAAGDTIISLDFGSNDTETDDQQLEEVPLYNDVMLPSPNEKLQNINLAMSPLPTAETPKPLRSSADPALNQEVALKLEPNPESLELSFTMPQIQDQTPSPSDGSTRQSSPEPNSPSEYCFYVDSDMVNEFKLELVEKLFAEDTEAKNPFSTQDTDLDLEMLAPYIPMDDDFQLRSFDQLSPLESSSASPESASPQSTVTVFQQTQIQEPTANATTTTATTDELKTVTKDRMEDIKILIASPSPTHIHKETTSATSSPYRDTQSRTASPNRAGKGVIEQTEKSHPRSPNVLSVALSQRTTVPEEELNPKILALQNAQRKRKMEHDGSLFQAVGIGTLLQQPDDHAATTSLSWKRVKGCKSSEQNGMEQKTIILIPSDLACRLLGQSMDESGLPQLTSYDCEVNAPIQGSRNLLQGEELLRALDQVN

Consider `O=C(NCc1cc(F)cc(-c2cnn(-c3ccc(F)cc3)c2)c1)c1ncnc2nc(C3CCC(F)(F)C3)[nH]c12` (single isomer, unassigned) [84(E1), 8-(3,3-Difluorocyclopentyl)-N-(3-fluoro-5-(1-(4-fluorophenyl)-1H-pyrazol-4-yl)benzyl)-7H-purine-6-carboxamide], for which, in experiment [1] (setting [3]), the pIC50 was above 7.00. For the same molecule, the DC50 in experiment [2] (setting [4]) was below 100 nM.

Take `O=C(NCc1cc(F)cc(-c2cnn(-c3ccc(F)cc3)c2)c1)c1ncnc2nc(C3CC(F)C3)[nH]c12` (single isomer, unassigned) [102(A), N-(3-Fluoro-5-(1-(4-fluorophenyl)-1H-pyrazol-4-yl)benzyl)-8-(3-fluorocyclobutyl)-7H-purine-6-carboxamide]: in experiment [1] (setting [3]), the pIC50 was below 5.00. The DC50 in experiment [2] (setting [4]) lay in the range of 1000 to 10000 nM.

As for `O=C(NCc1cc(F)cc(-c2cnn(-c3ccc(F)cc3)c2)c1)c1ncnc2nc(C3CC(F)C3)[nH]c12` (single isomer, unassigned) [102(B), N-(3-Fluoro-5-(1-(4-fluorophenyl)-1H-pyrazol-4-yl)benzyl)-8-(3-fluorocyclobutyl)-7H-purine-6-carboxamide], in experiment [1] (setting [3]), the pIC50 was 6.00 to 7.00. Moreover, in experiment [2] (setting [4]), the DC50 fell in the range of 100 to 1000 nM.

Consider `COC(=O)C1CC(c2nc3ncnc(C(=O)NCc4cc(F)cc(-c5cnn(-c6ccc(F)cc6)c5)c4)c3[nH]2)C1` (single isomer, unassigned) [103(A), Methyl 3-(6-((3-fluoro-5-(1-(4-fluorophenyl)-1H-pyrazol-4-yl)benzyl)carbamoyl)-7H-purin-8-yl)cyclobutanecarboxylate], for which the pIC50 in experiment [1] (setting [3]) is below 5.00. In experiment [2] (setting [4]), the DC50 was above 10000 nM.

`COC(=O)C1CC(c2nc3ncnc(C(=O)NCc4cc(F)cc(-c5cnn(-c6ccc(F)cc6)c5)c4)c3[nH]2)C1` (single isomer, unassigned) [103(B), Methyl 3-(6-((3-fluoro-5-(1-(4-fluorophenyl)-1H-pyrazol-4-yl)benzyl)carbamoyl)-7H-purin-8-yl)cyclobutanecarboxylate]: in experiment [1] (setting [3]), the pIC50 was below 5.00. Besides, the DC50 in experiment [2] (setting [4]) is above 10000 nM.

For the molecule `O=C(NCc1cc(F)cc(-c2cnn(-c3ccc(F)cc3)c2)c1)c1ncnc2nc(C3CCC(F)C3)[nH]c12` (single isomer, unassigned) [110(A), N-(3-Fluoro-5-(1-(4-fluorophenyl)-1H-pyrazol-4-yl)benzyl)-8-(3-fluorocyclopentyl)-7H-purine-6-carboxamide], in experiment [1] (setting [3]), the pIC50 was 6.00 to 7.00. The DC50 in experiment [2] (setting [4]) is below 100 nM.

Regarding `O=C(NCc1cc(F)cc(-c2cnn(-c3ccc(F)cc3)c2)c1)c1ncnc2nc(C3CCC(F)C3)[nH]c12` (single isomer, unassigned) [110(B), N-(3-Fluoro-5-(1-(4-fluorophenyl)-1H-pyrazol-4-yl)benzyl)-8-(3-fluorocyclopentyl)-7H-purine-6-carboxamide], the pIC50 in experiment [1] (setting [3]) is 6.00 to 7.00. For the same molecule, the DC50 in experiment [2] (setting [4]) is below 100 nM.

Take `O=C(NCc1cc(F)cc(-c2cnn(C(F)(F)F)c2)c1)c1ncnc2nc(C3CCCC3)[nH]c12` [Example 1, 8-Cyclopentyl-N-(3-fluoro-5-(1-(trifluoromethyl)-1H-pyrazol-4-yl)benzyl)-7H-purine-6-carboxamide]: the pIC50 in experiment [1] (setting [3]) was 6.00 to 7.00. The DC50 in experiment [2] (setting [5]) was below 100 nM.

On to `O=C(NCc1cc(F)cc(-c2cnn(CC(F)F)c2)c1)c1ncnc2nc(C3CCCC3)[nH]c12` [Example 2, 8-Cyclopentyl-N-(3-(1-(2,2-difluoroethyl)-1H-pyrazol-4-yl)-5-fluorobenzyl)-7H-purine-6-carboxamide], for which the pIC50 in experiment [1] (setting [3]) is 6.00 to 7.00. Also, the DC50 in experiment [2] (setting [5]) was below 100 nM.

`O=C(NCc1cc(F)cc(-c2cnn(CC(F)(F)F)c2)c1)c1ncnc2nc(C3CCCC3)[nH]c12` [Example 3, 8-Cyclopentyl-N-(3-fluoro-5-(1-(2,2,2-trifluoroethyl)-1H-pyrazol-4-yl)benzyl)-7H-purine-6-carboxamide]: in experiment [1] (setting [3]), the pIC50 was 6.00 to 7.00. Further, the DC50 in experiment [2] (setting [5]) is below 100 nM.

For `C[C@H](NC(=O)c1ncnc2nc(C3CCCC3)[nH]c12)c1cccc(-c2cnn(C)c2)c1` [Example 4, (S)-8-cyclopentyl-N-(1-(3-(1-methyl-1H-pyrazol-4-yl)phenyl)ethyl)-7H-purine-6-carboxamide], the pIC50 in experiment [1] (setting [3]) is 5.00 to 6.00. Further, the DC50 in experiment [2] (setting [5]) lay in the range of 100 to 1000 nM.

As for `Cn1cc(C(=O)Nc2cc(F)cc(CNC(=O)c3ncnc4nc(C5CCCC5)[nH]c34)c2)cn1` [Example 5, 8-Cyclopentyl-N-(3-fluoro-5-(1-methyl-1H-pyrazole-4-carboxamido)benzyl)-7H-purine-6-carboxamide], the pIC50 in experiment [1] (setting [3]) is 5.00 to 6.00. Besides, the DC50 in experiment [2] (setting [5]) was 100 to 1000 nM.

`O=C(NCc1cc(F)cc(-c2cnn(-c3ccccc3)c2)c1)c1ncnc2nc(C3CCCC3)[nH]c12` [Example 7, 8-Cyclopentyl-N-(3-fluoro-5-(1-phenyl-1H-pyrazol-4-yl)benzyl)-7H-purine-6-carboxamide]: the pIC50 in experiment [1] (setting [3]) is 6.00 to 7.00. Moreover, the DC50 in experiment [2] (setting [5]) was below 100 nM.

For `Cn1cc(Nc2cc(F)cc(CNC(=O)c3ncnc4nc(C5CCCC5)[nH]c34)c2)cn1` [Example 8, 8-Cyclopentyl-N-(3-fluoro-5-((1-methyl-1H-pyrazol-4-yl)amino)benzyl)-7H-purine-6-carboxamide], the pIC50 in experiment [1] (setting [3]) was 6.00 to 7.00. In experiment [2] (setting [5]), the DC50 is below 100 nM.

Turning to `O=C(NCc1cc(F)cc(-c2cnn(Cc3ccccc3)c2)c1)c1ncnc2nc(C3CCCC3)[nH]c12` [Example 9, N-(3-(1-benzyl-1H-pyrazol-4-yl)-5-fluorobenzyl)-8-cyclopentyl-7H-purine-6-carboxamide], in experiment [1] (setting [3]), the pIC50 is 6.00 to 7.00. Moreover, the DC50 in experiment [2] (setting [5]) was below 100 nM.

Consider `O=C(NCc1cc(F)cc(Nc2cccnc2)c1)c1ncnc2nc(C3CCCC3)[nH]c12` [Example 10, 8-Cyclopentyl-N-(3-fluoro-5-(pyridin-3-ylamino)benzyl)-7H-purine-6-carboxamide], for which the pIC50 in experiment [1] (setting [3]) was 6.00 to 7.00. Moreover, in experiment [2] (setting [5]), the DC50 is below 100 nM.

In the case of `O=C(NCc1cc(F)cc(-c2cn[nH]c2)c1)c1ncnc2nc(C3CCCC3)[nH]c12` [Example 11, 8-Cyclopentyl-N-(3-fluoro-5-(1H-pyrazol-4-yl)benzyl)-7H-purine-6-carboxamide], the pIC50 in experiment [1] (setting [6]), in experiment [1] (setting [3]) and in experiment [1] (setting [7]) was above 7.00 throughout. The DC50 in experiment [2] (setting [5]) is below 100 nM.

Turning to `O=C(NCc1cc(F)cc(-c2cnn(-c3ccncc3)c2)c1)c1ncnc2nc(C3CCCC3)[nH]c12` [Example 12, 8-Cyclopentyl-N-(3-fluoro-5-(1-(pyridin-4-yl)-1H-pyrazol-4-yl)benzyl)-7H-purine-6-carboxamide], the pIC50 in experiment [1] (setting [6]), in experiment [1] (setting [3]) and in experiment [1] (setting [7]) was above 7.00 each time. For the same molecule, the DC50 in experiment [2] (setting [5]) was below 100 nM.

For `O=C(NCc1cc(F)cc(-c2cnn(-c3ccc(F)cc3)c2)c1)c1ncnc2nc(C3CCC(F)(F)C3)[nH]c12` (stereo not drawn) [Example 84, 8-(3,3-Difluorocyclopentyl)-N-(3-fluoro-5-(1-(4-fluorophenyl)-1H-pyrazol-4-yl)benzyl)-7H-purine-6-carboxamide], the pIC50 in experiment [1] (setting [6]) and in experiment [1] (setting [7]) was above 7.00 in each case.
